Counter-ions that a name gives are not always drawn.
System: Huh7 liver cancer cells
Assay: in vitro cytotoxicity evaluation (viability analysis)
Type: cell-based
Conditions: FIG. 7
Protocol: Viability analysis was performed on Huh7 liver cancer cells to evaluate the toxicity of the prepared nanoparticles. Three groups were evaluated: doxorubicin hydrochloride (dox), particles loaded with doxorubicin (032d), and particles not loaded with doxorubicin (032).

## COc1cccc2c1C(=O)c1c(O)c3c(c(O)c1C2=O)C[C@@](O)(C(=O)CO)C[C@@H]3O[C@H]1C[C@H](N)[C@H](O)[C@H](C)O1 [doxorubicin hydrochloride]
  cell viability / cancer cell killing effect: cancer cell killing effect in a concentration-dependent manner

Source: patent US11753489B2, “Nanoparticles using anionic polymer, preparation method and composition thereof” (IMGT CO, LTD., priority 2020, dated 2023)
